# Source: PMC5626627 (The FEBS journal, 2017)
# Numbering of substitutions follows the chain as printed.
# Tests used:
# [1] = molecular target: T1, corn root FNR (ferredoxin:NADP+ reductase) (Zea mays, UniProt B4G043, Y381S); assay: anaerobic titration, visible absorption of FAD; type: binding
# T1 sequence (B4G043 66-381 Y381S): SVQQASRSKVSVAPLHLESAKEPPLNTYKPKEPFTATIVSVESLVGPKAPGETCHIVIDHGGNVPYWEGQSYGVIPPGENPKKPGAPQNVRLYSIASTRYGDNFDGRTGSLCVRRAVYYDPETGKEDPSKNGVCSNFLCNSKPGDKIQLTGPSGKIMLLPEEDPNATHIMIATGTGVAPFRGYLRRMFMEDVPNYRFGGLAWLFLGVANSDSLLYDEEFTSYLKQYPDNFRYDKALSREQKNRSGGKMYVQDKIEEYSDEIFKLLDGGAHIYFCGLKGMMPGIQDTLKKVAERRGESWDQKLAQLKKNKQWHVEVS
# [2] = molecular target: T1, corn root FNR (ferredoxin:NADP+ reductase); assay: titration, visible absorption of FAD; type: binding
# [3] = molecular target: T2, corn root FNR (ferredoxin:NADP+ reductase) (Zea mays, UniProt B4G043); assay: anaerobic spectrophotometric titration, flavin charge-transfer bands; type: biochemical; conditions: 50 mM HEPES-NaOH, pH 7.0, 15 °C
# T2 sequence (B4G043 66-381): T1 sequence (B4G043 66-381 Y381S) with S316Y
SMILES,Kd [2] [µM],further results
NC(=O)c1ccc[n+]([C@@H]2O[C@H](COP(=O)(O)OP(=O)(O)OC[C@H]3O[C@@H](n4cnc5c(N)ncnc54)[C@H](OP(=O)(O)O)[C@@H]3O)[C@@H](O)[C@H]2O)c1 [NADP^+],–,Kd [1]: ≤ 0.02 µM
NC(=O)c1cccnc1 [nicotinamide],3000 ± 100,–
NC(=O)C1=CN([C@@H]2O[C@H](COP(=O)(O)OP(=O)(O)OC[C@H]3O[C@@H](n4cnc5c(N)ncnc54)[C@H](OP(=O)(O)O)[C@@H]3O)[C@@H](O)[C@H]2O)C=CC1 [NADPH],–,"anaerobic spectrophotometric titration, flavin charge-transfer bands [3]: for wild-type the CTC-1 absorption band dominates"
NC(=O)c1ccc[n+]([C@@H]2O[C@H](COP(=O)(O)OP(=O)(O)OC[C@H]3O[C@@H](n4cnc5c(N)ncnc54)[C@H](O)[C@@H]3O)[C@@H](O)[C@H]2O)c1 [NAD^+],145 ± 5,–
